TGI and GI50 data for 13 molecules are collected here from PubChem BioAssay (NCI).

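Results reflect a 48-hour exposure of cells in 96-well plates to compound at five concentrations. GI50 = concentration required for 50% inhibition of growth. The concentration for full growth arrest is given as TGI.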

Some test systems named below: CAKI-1 renal; RXF 393 renal; SK-MEL-2 melanoma; MDA-N; SF-539 CNS; HCT-15 colon; CCRF-CEM leukemia; IGROV1 ovarian; KM12 colon; NCI-H23 lung; SNB-75 CNS; HOP-92 NSCLC.
Experiment in all cases: DTP human tumour cell line panel, 48 h

As to `CC1(C)[C@@H]2CC[C@]1(C)[C@H](OC(=O)/C=C/c1ccccc1)C2`, the TGI (as a rule, the concentration giving total growth inhibition) amounted to 38 µM in the test on CAKI-1 renal; 33.2 µM with RXF 393 renal; 35 µM with SK-MEL-2 melanoma; 92.6 µM with MDA-N; 35.9 µM in the test with SF-539 CNS; 33.4 µM with HCT-15 colon. Also, the TGI amounted to 41.6 µM in the test on CCRF-CEM leukemia; 51.8 µM in the test with IGROV1 ovarian; 42.6 µM in the test with KM12 colon; 50.8 µM with NCI-H23 lung; 33.3 µM in the test with SNB-75 CNS.
As to `CC(CC(N)C(=O)O)C(=O)O` (stereo not given), the concentration for total growth inhibition (TGI) with CAKI-1 renal, in the test with RXF 393 renal, with SK-MEL-2 melanoma, in the test with MDA-N, in the test with HCT-15 colon and in the test with CCRF-CEM leukemia was over 100 µM in each case. In addition, the TGI in the test with IGROV1 ovarian, in the test on KM12 colon, with HOP-92 NSCLC and with NCI-H23 lung was over 100 µM throughout.
In the case of `C=CCN1/C(=C(\C#N)c2nc3ccccc3[nH]2)Sc2c1nc[nH]c2=O`, the TGI with CAKI-1 renal, in the test with RXF 393 renal, in the test with SK-MEL-2 melanoma, in the test with SF-539 CNS, in the test on HCT-15 colon and in the test on CCRF-CEM leukemia was over 100 µM each time. The TGI in the test with IGROV1 ovarian, in the test with KM12 colon, in the test on HOP-92 NSCLC, with NCI-H23 lung and in the test on SNB-75 CNS was over 100 µM each time.
For the molecule `COc1cc(OC)cc(-c2ccc(-c3ccc(C(=N)N)cn3)o2)c1`, the GI50 (in general, the concentration giving 50% growth inhibition) was 2.01 µM in the test on SK-MEL-2 melanoma; 1.55 µM in the test on SF-539 CNS; 2.06 µM in the test on CCRF-CEM leukemia; 1.81 µM in the test with IGROV1 ovarian; 1.78 µM with KM12 colon; 1.42 µM in the test on HOP-92 NSCLC. Further, the GI50 with SNB-75 CNS was 1.48 µM. Besides, the TGI in the test on SK-MEL-2 melanoma is 3.72 µM; in the test on SF-539 CNS it was 2.9 µM; with CCRF-CEM leukemia, 4.6 µM; in the test on IGROV1 ovarian, 3.38 µM; in the test on KM12 colon, 3.34 µM; with HOP-92 NSCLC it was 2.87 µM. The TGI in the test on SNB-75 CNS worked out at 2.85 µM.
Regarding `COc1nc2cccc(C(O)c3ccccc3)c2nc1-c1ccccc1` (stereo not given), the TGI in the test with CAKI-1 renal was 63.8 µM; in the test on RXF 393 renal it was 14.6 µM; with SK-MEL-2 melanoma it was 33.3 µM; in the test on MDA-N it was 5.17 µM; in the test on SF-539 CNS, 8.23 µM; in the test with HCT-15 colon it was 26.5 µM. The TGI was 10.8 µM in the test with CCRF-CEM leukemia; 44.6 µM in the test on IGROV1 ovarian; over 100 µM in the test on KM12 colon; 31.8 µM in the test with HOP-92 NSCLC; 35.5 µM with NCI-H23 lung; over 100 µM in the test on SNB-75 CNS.
As for `N#CC(N=Nc1ccccc1C(=O)O)C(N)=O` (stereo not given), the TGI in the test with CAKI-1 renal, in the test on RXF 393 renal, in the test with SK-MEL-2 melanoma, in the test with MDA-N, in the test with HCT-15 colon and in the test with CCRF-CEM leukemia was over 100 µM each time. Further, the concentration for total growth inhibition (TGI) in the test with KM12 colon, with NCI-H23 lung and with SNB-75 CNS was over 100 µM in each case.
`Cc1[nH]c(=O)[nH]c(=O)c1/C=C/C(=O)O` (tested in a mixture with another compound): the TGI in the test with CAKI-1 renal, with RXF 393 renal, with SK-MEL-2 melanoma, in the test on SF-539 CNS, in the test on HCT-15 colon and in the test on CCRF-CEM leukemia was over 625 µM throughout. Further, the TGI in the test with IGROV1 ovarian is over 625 µM; in the test on KM12 colon it was over 625 µM; in the test on HOP-92 NSCLC, 623 µM; with NCI-H23 lung it was over 625 µM; in the test on SNB-75 CNS, over 625 µM.
`OCC1COc2cc(Cl)c(Cl)cc2O1` (stereo not given): the TGI in the test with CAKI-1 renal, in the test with RXF 393 renal, in the test with SK-MEL-2 melanoma, with MDA-N, in the test with SF-539 CNS and with HCT-15 colon was over 10 µM throughout. The concentration for total growth inhibition (TGI) in the test on CCRF-CEM leukemia, with IGROV1 ovarian, in the test with KM12 colon, in the test with NCI-H23 lung and in the test with SNB-75 CNS was over 10 µM in each case.
As for `CCC(C)C(N)C(=O)NC(CC(N)=O)C(=O)NC(CC(C)C)C(=O)NC(CCCCN)C(=O)NC(C)C(=O)NC(CC(C)C)C(=O)NC(C)C(=O)NC(C)C(=O)NC(CC(C)C)C(=O)NC(C)C(=O)NC(CCCCN)C(=O)NC(CCCCN)C(=O)NC(C(=O)NC(CC(C)C)C(N)=O)C(C)CC` (stereo not given), the TGI is 22.5 µM in the test with CAKI-1 renal; 21.7 µM in the test on RXF 393 renal; 36.8 µM with SK-MEL-2 melanoma; 11.3 µM in the test with SF-539 CNS; 31.8 µM in the test with HCT-15 colon; 18.6 µM with CCRF-CEM leukemia. Also, the TGI in the test on IGROV1 ovarian came out at 34.4 µM; with KM12 colon, 29.5 µM; in the test on HOP-92 NSCLC it was 5.38 µM; in the test on NCI-H23 lung, 29 µM; in the test with SNB-75 CNS, 14 µM.
In the case of `O=c1[nH]nc(NCc2ccccc2)c2nnn(Cc3ccccc3)c12`, the TGI in the test with CAKI-1 renal, in the test on SK-MEL-2 melanoma, with MDA-N, in the test on HCT-15 colon, in the test with CCRF-CEM leukemia and in the test on KM12 colon was over 100 µM each time. Further, the TGI in the test with HOP-92 NSCLC and with NCI-H23 lung was over 100 µM in each case.
On to `NCCSc1cc(O)c2c(c1N)C(=O)c1ccccc1C2=O`, for which the total growth inhibition concentration (TGI) in the test with CAKI-1 renal was over 100 µM; in the test with RXF 393 renal, 91.1 µM; in the test with SK-MEL-2 melanoma, over 100 µM; with SF-539 CNS it was over 100 µM; in the test with HCT-15 colon, over 100 µM; with CCRF-CEM leukemia it was 43.1 µM. For the same molecule, the TGI with IGROV1 ovarian is 65.9 µM; in the test with KM12 colon it was over 100 µM; in the test on HOP-92 NSCLC it was over 100 µM; with NCI-H23 lung, over 100 µM; in the test on SNB-75 CNS, over 100 µM.
For the molecule `CSCC[C@@H]1C(=O)N(C)[C@H](C(C)(C)C)N1C(=O)c1ccccc1`, the TGI in the test with RXF 393 renal, in the test with SK-MEL-2 melanoma, with SF-539 CNS, in the test with HCT-15 colon, in the test with CCRF-CEM leukemia and in the test with IGROV1 ovarian was over 100 µM in each case. Moreover, the total growth inhibition concentration (TGI) with KM12 colon, in the test with HOP-92 NSCLC, with NCI-H23 lung and with SNB-75 CNS was over 100 µM throughout.
With `COc1cc2c3cc1Oc1c(O)c(OC)cc4c1C(Cc1ccc(O)c(c1)Oc1ccc(cc1)CC3N(C)CC2)N(C)CC4` (stereo not given), the TGI in the test with CAKI-1 renal was 32.4 µM; in the test on RXF 393 renal, 9.7 µM; in the test with SK-MEL-2 melanoma, 38.4 µM; with SF-539 CNS, 5.8 µM; in the test on HCT-15 colon, 23.8 µM; in the test with CCRF-CEM leukemia, 36.7 µM. Further, the TGI turned out to be 56.1 µM in the test with IGROV1 ovarian; 23.6 µM in the test with KM12 colon; 24.3 µM in the test on HOP-92 NSCLC; 39 µM with NCI-H23 lung; 35.3 µM in the test on SNB-75 CNS.
